Measured values from patent US20250195666A1, “MIR-142 COMPOUNDS AND USES THEREOF” (City of Hope, priority 2021, published 2025).

Tested on: miR-142^−/−BCR-ABL LSKs
Procedure: LSKs from diseased miR-142 null and miR-142 wt BCR-ABL mice were treated with CpG-M-miR-142 (2 μM) or SCR±NIL (2 μM) for 72 h.

`Cc1cn(-c2cc(NC(=O)c3ccc(C)c(Nc4nccc(-c5cccnc5)n4)c3)cc(C(F)(F)F)c2)cn1` [NIL, nilotinib] was tested, and the apoptosis was “lower apoptosis” and the cell growth was “higher cell growth”.
